Data taken from PubChem BioAssay (NCI).
Values joined by “and” are separate entries in the source; they are usually repeats but may differ in a detail not shown here. Equal values may be shown once.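 Five compound concentrations were applied to cells in 96-well plates for 48 hours; endpoints were derived by simple linear interpolation of the resulting dose-response curve. Here, GI50 denotes the concentration required for 50% inhibition of growth. The concentration for full growth arrest is given as TGI.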

Tests used:
Test in all cases: inhibition of tumour cell growth, NCI panel, 48 h
PC-3 prostate = test system: PC-3 prostate
LOX IMVI melanoma = test system: LOX IMVI melanoma
SN12C renal = test system: SN12C renal
OVCAR-5 ovarian = test system: OVCAR-5 ovarian
SK-MEL-28 melanoma = test system: SK-MEL-28 melanoma
HOP-62 NSCLC = test system: HOP-62 NSCLC
EKVX NSCLC = test system: EKVX NSCLC
U251 CNS = test system: U251 CNS
SK-OV-3 ovarian = test system: SK-OV-3 ovarian
786-0 renal = test system: 786-0 renal

SMILES	GI50 (PC-3 prostate)	TGI (PC-3 prostate)	GI50 (LOX IMVI melanoma)	TGI (LOX IMVI melanoma) [µM]	GI50 (SN12C renal)	TGI (SN12C renal) [µM]	GI50 (OVCAR-5 ovarian)	TGI (OVCAR-5 ovarian) [µM]	GI50 (SK-MEL-28 melanoma)	TGI (SK-MEL-28 melanoma)	GI50 (HOP-62 NSCLC)	TGI (HOP-62 NSCLC)	GI50 (EKVX NSCLC)	TGI (EKVX NSCLC)	GI50 (U251 CNS)	TGI (U251 CNS) [µM]	GI50 (SK-OV-3 ovarian)	TGI (SK-OV-3 ovarian)	GI50 (786-0 renal)	TGI (786-0 renal) [µM]
COc1cc(/C=N/NC(=O)c2ccc(C(F)(F)F)nc2Nc2ccc(Cl)cc2C)ccc1O	1.89 µM	9.87 µM	1.36 µM	11.5	2.97 µM	16.5	2.9 µM	15.6	2.74 µM	14.3 µM	3.78 µM	19.7 µM	1.06 µM	12.4 µM	2.09 µM	10.6	3.79 µM	15.6 µM	2.64 µM	9.93
Cc1ccc(NC2=C(Cl)C(=O)N(Cc3ccccc3)C2=O)cc1O	32.5 µM	> 100 µM	18 µM	63.4	25.6 µM	93.8	> 100 µM	> 100	52.8 µM	> 100 µM	34.8 µM	> 100 µM	17.8 µM	52.6 µM	18.7 µM	84.6	55.2 µM	> 100 µM	22.6 µM	> 100
O=C(O)CSc1ccc([N+](=O)[O-])cc1[N+](=O)[O-]	–	> 100 µM	–	> 100	–	> 100	–	> 100	–	> 100 µM	–	> 100 µM	–	> 100 µM	–	> 100	–	> 100 µM	–	> 100
CCCCCN(CCCCC)CC(O)c1cc(C)c2ccc3cc(C(C)C)ccc3c2c1 (stereo not given)	1.59 µM	3.08 µM	1.76 µM	3.28	1.75 µM	3.59	1.8 µM	3.66	1.76 µM	3.27 µM	2.12 µM	5.7 µM	1.76 µM	3.34 µM	1.9 µM	3.82	1.72 µM	3.46 µM	1.79 µM	3.41
CC12CCC(O)CC1CCC1C2CCC2(C)C(C3=CC(=O)OC3)CCC12O (stereo not given)	–	13.1 µM	–	10.6	–	4.72	–	16.9	–	33.7 µM	–	6.01 µM	–	5.88 µM	–	27.8	–	18.5 µM	–	4.78
NNC(=O)Nc1cccnc1	–	> 100 µM	–	> 100	–	> 100	–	> 100	–	> 100 µM	–	> 100 µM	–	> 100 µM	–	> 100	–	> 100 µM	–	> 100
COC1CCC(N2C(=O)CNc3ncc(-c4ccc(C(C)(C)O)nc4)nc32)CC1 (stereo not given)	0.322 µM and 0.108 µM	4.2 µM and > 33.5 µM	1.35 µM and 0.329 µM	> 34.2	0.794 µM and 0.315 µM	> 43.2	0.918 µM and 0.273 µM	> 44.8	0.378 µM and 0.155 µM	4.1 µM and 10.4 µM	1.92 µM and 0.437 µM	> 10 µM and 14.5 µM	1.21 µM and 0.186 µM	> 8.47 µM and 6.7 µM	1.41 µM and 1.06 µM	> 33.4	0.464 µM and 0.0716 µM	3.93 µM and 0.551 µM	0.962 µM and 0.243 µM	> 32.1
O=C1C=C(Cl)C(=O)C(c2ccc(Cl)cc2)=C1	–	29.3 µM	–	35.7	–	44.4	–	39.6	–	43.4 µM	–	44 µM	–	30.2 µM	–	30	–	> 100 µM	–	38.1
COc1ccc(C(=O)Cn2c(C(=O)c3ccccc3)nc(-c3ccc(OC)cc3)c2-c2ccc(OC)cc2)cc1	> 100 µM	> 100 µM	> 100 µM	> 100	> 100 µM	> 100	> 100 µM	> 100	> 100 µM	> 100 µM	74 µM	> 100 µM	> 100 µM	> 100 µM	64.9 µM	> 100	97.8 µM	> 100 µM	46.1 µM	> 100
O=CN/C=C/c1cc(O)ccc1O	–	> 100 µM	–	28.1	–	31.3	–	> 100	–	> 78.5 µM	–	> 100 µM	–	35.6 µM	–	> 66	–	> 90.5 µM	–	27.1
O=C1CC(c2ccc3c(c2)OCO3)Nc2ccccc21 (stereo not given)	3.83 µM	36.6 µM	5.91 µM	20.5	6.28 µM	23	11.1 µM	> 55.4	15.1 µM	32.7 µM	14.2 µM	86 µM	11.8 µM	46.4 µM	8.46 µM	24.7	16.8 µM	> 100 µM	8.11 µM	40.2
CC/C=C\CCC/C=C1/C(=O)C=C[C@@H]1C/C=C\CCCC(=O)OC	3.14 µM	8.11 µM	1.59 µM	3.28	2.92 µM	8.18	5.28 µM	17.6	3.25 µM	10.3 µM	3.54 µM	11 µM	4.56 µM	15.6 µM	4.22 µM	14.5	14.9 µM	29.4 µM	3.74 µM	11.4
